The record followed here is US9303016B2, “Derivatives of aza adamantane and uses thereof” (CONNEXIOS LIFE SCIENCES PVT. LTD., priority 2011, dated 2016).

Molecules are shown by their SMILES. pIC50: −log10 of the molar value.

The target in the assay is T1, human full length HSD11β1 (Homo sapiens, UniProt P28845).
T1 construct: transient expression of human full length HSD11β1 expression vector; host or cells: CHO cells, transient transfection
T1 sequence (P28845 whole entry): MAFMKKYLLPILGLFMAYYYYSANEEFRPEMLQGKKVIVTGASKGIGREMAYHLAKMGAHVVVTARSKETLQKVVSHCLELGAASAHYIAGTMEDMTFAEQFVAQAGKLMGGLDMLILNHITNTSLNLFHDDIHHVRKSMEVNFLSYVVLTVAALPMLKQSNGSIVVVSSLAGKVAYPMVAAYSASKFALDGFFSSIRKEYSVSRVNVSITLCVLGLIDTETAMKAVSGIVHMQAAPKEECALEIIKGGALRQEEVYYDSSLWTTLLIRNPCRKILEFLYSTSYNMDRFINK
Briefly: In Vitro HSD11β1 Inhibition Assay. It counts as cell-based. To be noted: CHO cells transiently expressing human HSD11β1; 200 nM cortisone+500 uM NADPH overnight; cortisone to cortisol by LC/MS-MS; read-out: 11βHSD1 (IC50). Put shortly:
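Whole-cell assay in CHO cells transiently transfected with full-length human HSD11β1, re-seeded 24 h after transfection. Cells incubated overnight with 200 nM cortisone plus 500 uM NADPH, with or without inhibitor. Cortisone-to-cortisol conversion measured by LC/MS-MS; IC50 (nM) from an 8-point log concentration-inhibition curve.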
Take `CC(CC(=O)N1C2CC3CC1CC(O)(C3)C2)c1nc2ccc(Cl)cc2s1` (single isomer, unassigned) [Compound 195, 3-(6-chloro-1,3-benzothiazol-2-yl)-1-(5-hydroxy-2-azatricyclo[3.3.1.1^3,7]dec-2-yl)butan-1-one]: the pIC50 (in general, −log10 of the IC50, conventionally taken in molar units) is less than 6.60.

On to `Cc1cccc2[nH]cc(C(CC(=O)N3C4CC5CC3CC(O)(C5)C4)C(C)C)c12` (centres unmarked) [Compound 74, 1-(5-hydroxy-2-azatricyclo[3.3.1.1^7]dec-2-yl)-4-methyl-3-(4-methyl-1H-indol-3-yl)pentan-1-one], for which the pIC50 was less than 6.60.

For `CCC(CC(=O)N1C2CC3CC1CC(O)(C3)C2)c1c[nH]c2ccccc12` (centres unmarked) [Example 64, 1-(5-hydroxy-2-azatricyclo[3.3.1.1^3,7]dec-2-yl)-3-(1H-indol-3-yl)pentan-1-one], the pIC50 is 6.82 to 7.00.

Take `CC(CC(=O)N1C2CC3CC1CC(CO)(C3)C2)c1c[nH]c2cccc(Cl)c12` (centres unmarked) [Example 58, 3-(4-chloro-1H-indol-3-yl)-1-[5-(hydroxymethyl)-2-azatricyclo[3.3.1.1^3,7]dec-2-yl]butan-1-one]: the pIC50 is greater than 7.00.

In the case of `CC(CC(=O)N1C2CC3CC(C2)CC1C3)c1c[nH]c2ccc(OS(C)(=O)=O)cc12` (centres unmarked) [Compound 229, 3-(4-(2-azaadamantan-2-yl)-4-oxobutan-2-yl)-1H-indol-5-yl methanesulfonate], the pIC50 was less than 6.60.

Consider `Cc1cccc2[nH]cc(C(C)CC(=O)N3C4CC5CC3CC(O)(C5)C4)c12` (single isomer, unassigned) [Example 49, 1-(5-hydroxy-2-azatricyclo[3.3.1.1^3,7]dec-2-yl)-3-(4-methyl-1H-indol-3-yl)butan-1-one], for which the pIC50 is greater than 7.00.

As to `O=C(CC(c1cccs1)c1c[nH]c2cccc(F)c12)N1C2CC3CC1CC(O)(C3)C2` (centres unmarked) [Compound 127, 3-(4-fluoro-1H-indol-3-yl)-1-(5-hydroxy-2-azatricyclo[3.3.1.1^3,7]dec-2-yl)-3-(thiophen-2-yl)propan-1-one], the pIC50 was greater than 7.00.

With `O=C(CCc1c[nH]c2ccc(F)cc12)N1C2CC3CC(C2)CC1C3` [Example 7, 1-(2-azatricyclo[3.3.1.1^3,7]dec-2-yl)-3-(5-fluoro-1H-indol-3-yl)propan-1-one], the pIC50 was less than 6.60.

For the compound `CC(CC(=O)N1C2CC3CC(C2)CC1C3)c1c[nH]c2ccccc12` (centres unmarked) [Example 17, 1-(2-azatricyclo[3.3.1.1^3,7]dec-2-yl)-3-(1H-indol-3-yl)butan-1-one], the pIC50 was 6.82 to 7.00.

For `CC(CC(=O)N1C2CC3CC1CC(C#N)(C3)C2)c1nc2c(Cl)cccc2s1` (single isomer, unassigned) [Compound 124, 2-[3-(4-chloro-1,3-benzothiazol-2-yl)butanoyl]-2-azatricyclo[3.3.1.1^3,7]decane-5-carbonitrile], the pIC50 is less than 6.60.

Regarding `O=C(CCc1c[nH]c2cccc(F)c12)N1C2CC3CC1CC(O)(C3)C2` [Example 4, 3-(4-fluoro-1H-indol-3-yl)-1-(5-hydroxy-2-azatricyclo[3.3.1.1^3,7]dec-2-yl)propan-1-one], the pIC50 is less than 6.60.

`Cn1cc(CCC(=O)N2C3CC4CC2CC(O)(C4)C3)c2c(F)cccc21` [Example 8, 3-(4-fluoro-1-methyl-1H-indol-3-yl)-1-(5-hydroxy-2-azatricyclo[3.3.1.1^3,7]dec-2-yl)propan-1-one]: the pIC50 is less than 6.60.

As for `O=C(CCc1c[nH]c2cccc(C3CC3)c12)N1C2CC3CC1CC(O)(C3)C2` [Compound 126, 3-(4-cyclopropyl-1H-indol-3-yl)-1-(5-hydroxy-2-azatricyclo[3.3.1.1^3,7]dec-2-yl)propan-1-one], the negative-log IC50 (pIC50) was greater than 7.00.

In the case of `CC(C)C(CC(=O)N1C2CC3CC1CC(O)(C3)C2)c1c[nH]c2ncccc12` (centres unmarked) [Compound 90, 1-(5-hydroxy-2-azatricyclo[3.3.1.1^3,7]dec-2-yl)-4-methyl-3-(1H-pyrrolo[2,3-b]pyridin-3-yl)pentan-1-one], the pIC50 is less than 6.60.
